The values below come from ChEMBL document CHEMBL6121054, “Discovery of Metabolic Reprogramming 2-Quinolones as Effective Antimicrobials for MRSA-Infected Wound Therapy” (J Med Chem, 2025).

The structures appear in SMILES notation. Calls of active or inactive are those of the source. The calls are words filed in the database; no cut-off is given here.

In general, MBC refers to the lowest tested concentration that kills the bacteria rather than only halting them.

Assay [1] has as its system Staphylococcus aureus. Description: Antibacterial activity against methicillin-resistant Staphylococcus aureus infected in BALB/c mouse wound model assessed as decrease in wound area at 20 to 80 mg/kg administered topically on days 0, 3 and 6 measured after 12 days. The class given is functional, organism-based. The following applies: dose 20-80 mg/kg, route top, time 12.0 day.

For another assay, the system named is Listeria monocytogenes. In words: Bactericidal activity against Listeria monocytogenes ATCC 19115. The class given is functional.
Assay [2] relates to Staphylococcus aureus. Description: Induction of H2O2 accumulation in Staphylococcus aureus USA300 upto 0.25 ug/ml incubated for 5 hrs. The class given is functional, organism-based. Particulars: dose <= 0.25 µg/ml.
The subject of assay [3] is Staphylococcus aureus. Description: Antibacterial activity against methicillin-resistant Staphylococcus aureus infected in BALB/c mouse wound model assessed as reversal of inflammation-induced IL-6 level in wound at 20 to 80 mg/kg administered topically on days 0, 3 and 6 measured after 12 days by ELISA. In kind it is functional, organism-based. The following applies: dose 20-80 mg/kg, route top, time 12.0 day.

The test system of assay [4] is Staphylococcus aureus. In words: Induction of cell permeability in Staphylococcus aureus USA300 upto 0.13 uM by PI dye based analysis. In kind it is functional, organism-based.

Take `CCn1c(=O)c(C(=O)Nc2nnc(-c3ccc(C)cn3)s2)c(O)c2ccccc21`: the result in the assay with Staphylococcus aureus [1], in the assay on Staphylococcus aureus [2], in the assay on Staphylococcus aureus [3] and with Staphylococcus aureus [4] was Active. Also, the MBC with Listeria monocytogenes is > 0.25 µg/mL.
